We go through 2 molecules from patent US20240082212A1, “USE OF MDMA FOR TREATMENT OF STRESS-RELATED DISORDERS” (priority 2022, published 2024).

By Cmax is commonly meant the peak of the concentration-time curve. As a reminder, the Tmax is the time from dosing to the highest level. One may read the inhibition as the relative decrease from the control value, in per cent.

For one data set, the target named is Serotonin 5-HT2B (Homo sapiens, UniProt P41595). In words: Eurofins Panlabs radioligand binding panel, serotonin 5-HT2B. The note with it: 10 uM.
A short description of data set [1]: Rat plasma pharmacokinetics after cumulative (QID) SC injections. The note with it: for Cmax: metabolite after QID SC parent (R-MDA after R-MDMA, S-MDA after S-MDMA, total MDA after Rac-MDMA).
The test system of another data set is C57BL/6J mice. In words: Head twitch response (HTR). The note with it: 30 minutes after injection. Type of data set: in vivo, mouse. On the procedure: Male C57BL/6J mice at 6-8 weeks of age were purchased from Jackson Laboratories and housed four per cage in a climate and humidity-controlled room in a vivarium at the University of California, San Diego. The room operated on a reverse light cycle (lights on at 1900 h, off at 0700 h) with food and water available ad libitum, except during testing. All testing was performed during 1000 h and 1800 h. After a minimum of 1 week acclimation to the housing facility, mice were anesthetized using a mixture of ketamine (100 mg/kg IP) and xylazine (10 mg/kg IP). Under deep anesthesia, an incision was made in the scalp and a small neodymium magnet (4.57 mm×4.57 mm×2.03 mm) was attached to the cranium using cyanoacrylate and dental cement. After at least a 2-week recovery period, the mouse was removed from the home cage and injected intraperitoneally with the test article or vehicle (0.9% sterile saline). Immediately, the mouse was placed in a glass cylinder surrounded by a magnetometer coil and the head twitch response (HTR) was assessed for 30 minutes (Halberstadt and Geyer, 2013). The output of the coil was recorded using a Powerlab/8SP with LabChart v.7.3.2 (ADInstruments). Coil voltage was amplified, low-pass filtered (2-10 kHz cut-off frequency) to remove interference, digitized and sampled at 20 kHz. Head twitches were identified using a validated technique based on artificial intelligence (Halberstadt, 2020). Events in the recordings were transformed into a visual representation in the time-frequency domain and deep features were extracted using the pretrained convolutional neural network ResNet-50, and the images were subsequently classified using a Support Vector Machine algorithm.
Test articles (R,S-MDA, R(−)-MDA, S-(+)MDA), R,S-MDMA, R(−)-MDMA and S(+)-MDMA) were supplied by the NIDA Drug Supply Program as neat powders. Racemic MDA and MDMA and their enantiomers were dissolved in saline and injected IP at a volume of 5 mL/kg. Each dose was calculated based on the salt form of the compounds. For each treatment condition, six groups of mice (n=5-6/group) were treated with vehicle or the test drug (0.1, 0.3, 1, 3, or 10 mg/kg) and HTR assessed for 30 minutes immediately following injections. To avoid carryover effects, each treatment condition was performed at least seven days apart. Total number of mice used for the experiment was 63.

The test system of another data set is cortical neurons. Put plainly: Neurite outgrowth in embryonic rat cortical neuron cultures. The data set is classed as cell-based. The note with it: any tested concentration (0.001 to 10000 nM), 3 days, vs vehicle. An excerpt:
Female Wistar rats of 17 days gestation were killed by cervical dislocation and the fetuses (typically 6 to 8 in number) were removed from the uteri. Fetal brains were placed in ice-cold medium of Leibovitz (L15, Gibco, France). Cortex was dissected and meninges were carefully removed. The cortical neurons were dissociated by trypsinization (trypsin-EDTA, Gibco) in the presence of DNAse I (Roche, France). The reaction was stopped by addition of Dulbecco's Modified Eagle Medium (DMEM; Gibco) with 10% of fetal bovine serum (FBS; Gibco). The suspension was triturated with a 10-ml pipette and a 21-gauge needle syringe and centrifuged. The pellet of dissociated cells was resuspended in a medium consisting of Neurobasal (Gibco) supplemented with 2% B27 supplement (Gibco), 0.5 mM L-Glutamine (Gibco), and an antibiotic-antimycotic mixture. Viable cells were counted in a Neubauer cytometer and cells were seeded in 96-well plates (Costar) precoated with poly-L-lysine at 10,000 cells/well. […] Stock solutions were prepared in sterile water at 10 mM and stored at −20° C. until used. Further dilutions were prepared in culture in the medium on the day of the treatment. 0.1% Sterile water was present in all tested conditions.
The experimental protocol was performed in two independent cultures (i.e., from two different pregnant rats). For each culture, each condition was tested in sextuplet (6 wells per condition per culture for a total of 12 wells per condition). […] After three days of plating and compound treatment (Day 3), cultures were fixed with paraformaldehyde in phosphate buffered saline at 4° C. (PBS, 4%, Sigma). All subsequent steps were performed at room temperature. Cells were successively permeabilized for 30 minutes using 0.1% triton, saturated with PBS containing 3% bovine serum albumin (BSA) and incubated for 1 hour with anti-beta III tubulin antibody (T5168, Sigma). […] Finally, nuclei were stained with 4′-6-diamidino-2-phenylindole (DAPI). After rinsing the cells with PBS, the plate was imaged and neurite networks were examined and analyzed using a High-Content Screening platform (CellInsight CXS, Thermo Scientific) with integrated Photometrics high-resolution fluorescent camera, Olympus objective (10×) and HCS Studio Cell Analysis Software. Approximately 2,000 neurons per well were analyzed using a validated cortex neuron outgrowth algorithm that utilizes parameters optimized for analysis of embryonic rat cortical neuron cultures. The HCS Studio Cell Analysis Software output included values for neurite total count (#), neurite total length (μm) and total number of branch points (#) for each of the 6 wells per culture. The evaluation of neurite outgrowth was performed using the average number of neurites per neuron (#), the average of total neurite length per neuron (μm) and the average number of branch points per neuron (#) across 12 wells. Data also was transformed to percent (%) of the average vehicle control value. Results were expressed as mean (±s.e.m.) of the transformed (% of vehicle control) data. Statistical analyses were performed on transformed percent of the average vehicle control data for each measure for each test article using one-way analysis of variance (Anova, StatView). Where applicable, Dunnett's test was used for multiple pairwise comparisons to the negative control (vehicle) condition. […] The level of significance was set at p value less than or equal to 0.05 (*p<0.05).

Another data set has as its target T1, Serotonin 5-HT1A (Homo sapiens, UniProt P08908).
T1 sequence (P08908 1-422): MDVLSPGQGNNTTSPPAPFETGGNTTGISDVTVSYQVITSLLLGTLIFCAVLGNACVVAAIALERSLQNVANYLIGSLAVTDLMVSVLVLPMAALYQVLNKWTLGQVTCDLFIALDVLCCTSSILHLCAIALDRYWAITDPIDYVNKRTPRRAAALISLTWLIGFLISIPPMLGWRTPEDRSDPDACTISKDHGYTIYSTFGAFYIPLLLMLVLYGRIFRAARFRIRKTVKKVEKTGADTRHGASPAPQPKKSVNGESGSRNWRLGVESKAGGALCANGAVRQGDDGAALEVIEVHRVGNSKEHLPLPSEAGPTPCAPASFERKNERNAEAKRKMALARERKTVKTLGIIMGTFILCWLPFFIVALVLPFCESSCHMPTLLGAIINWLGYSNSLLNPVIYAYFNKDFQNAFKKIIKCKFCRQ
Put plainly: Eurofins Panlabs radioligand binding panel, serotonin 5-HT1A. The note with it: 10 uM.

The next data set has as its target T2, Adrenergic α2A (Homo sapiens, UniProt P08913).
T2 sequence (P08913 1-465): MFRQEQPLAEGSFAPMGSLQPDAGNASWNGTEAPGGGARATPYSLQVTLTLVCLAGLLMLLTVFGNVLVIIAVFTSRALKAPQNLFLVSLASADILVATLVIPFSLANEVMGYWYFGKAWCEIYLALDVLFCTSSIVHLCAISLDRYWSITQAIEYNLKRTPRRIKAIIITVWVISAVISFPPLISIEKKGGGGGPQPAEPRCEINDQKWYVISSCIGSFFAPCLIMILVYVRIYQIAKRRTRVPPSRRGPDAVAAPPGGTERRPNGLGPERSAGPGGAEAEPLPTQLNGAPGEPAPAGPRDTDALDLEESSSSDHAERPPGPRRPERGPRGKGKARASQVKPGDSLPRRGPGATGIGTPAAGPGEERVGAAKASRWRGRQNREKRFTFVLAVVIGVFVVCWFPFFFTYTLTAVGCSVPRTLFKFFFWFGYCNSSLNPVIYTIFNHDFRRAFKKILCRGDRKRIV
In words: Eurofins Panlabs radioligand binding panel, adrenergic α2A. The note with it: read-out: % inhibition of binding or activity. On the procedure: Each of the compounds was evaluated for binding to 87 different targets as part of a panel (Eurofins Panlabs, Taiwan, China). Each compound was tested at a single concentration of […]. The panel included mostly G-protein-couple receptors, ion channels, enzymes, transporters and nuclear receptors, expressed in the central nervous system, cardiovascular, respiratory, gastrointestinal and renal systems. A limited number of targets were of pig, rat or guinea pig origin. Targets were expressed in human recombinant cells lines, rat brain or spinal cord, guinea pig brain or pig heart. Methods were adapted from the scientific literature to maximize reliability and reproducibility. Reference standards were run as an integral part of each assay to ensure validity of the results obtained (available online at the eurofins website for the safety screen 87 panel).

[2] abbreviates: male rat plasma, metabolite after QID SC parent, total 10 mg/kg/day.
Setting [3] is: male rat plasma, metabolite after QID SC parent, total 20 mg/kg/day.

Sequence of Serotonin 5-HT2B (P41595 whole entry): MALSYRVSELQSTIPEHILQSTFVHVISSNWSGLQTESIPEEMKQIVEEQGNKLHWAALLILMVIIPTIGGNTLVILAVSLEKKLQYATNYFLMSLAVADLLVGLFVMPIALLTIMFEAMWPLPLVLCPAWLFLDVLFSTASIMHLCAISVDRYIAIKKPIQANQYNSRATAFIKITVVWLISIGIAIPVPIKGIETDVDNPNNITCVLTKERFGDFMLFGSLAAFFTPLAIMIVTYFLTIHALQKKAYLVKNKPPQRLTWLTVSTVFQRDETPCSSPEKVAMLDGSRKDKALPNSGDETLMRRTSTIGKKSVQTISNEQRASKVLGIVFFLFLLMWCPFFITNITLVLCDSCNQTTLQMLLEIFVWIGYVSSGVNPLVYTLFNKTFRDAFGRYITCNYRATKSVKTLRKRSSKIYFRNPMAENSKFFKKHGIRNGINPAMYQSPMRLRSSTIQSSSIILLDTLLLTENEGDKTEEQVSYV

As for `C[C@@H](N)Cc1ccc2c(c1)OCO2` [R-MDA, R(−)-MDA], the “% inhibition of binding or activity” value at Serotonin 5-HT2B was found to be 88%. Also, the “dose dependence of Cmax and AUC0-27 hr” value in data set [1] (dose increase from 10 to 20 mg/kg/day of the dosed test article, QID SC) was “approximately dose proportional manner”. Moreover, the Cmax in data set [1] (male rat plasma, total 10 mg/kg/day) is listed as 127 ng/mL. The Cmax in data set [1] (male rat plasma, total 20 mg/kg/day) was found to be 272 ng/mL. In addition, in data set [1] (setting [2]), the AUC0-27 hr turned out to be 813 ng·h/mL, the “AUC0-27 hr/Dose” value is recorded as 81.3 *kg*ng/mL/mg, the AUCTlast turned out to be 716 ng·h/mL and the Cmax/Dose was 12.7 kg·ng/mL/mg. For the same molecule, in data set [1] (setting [2]), the Tlast turned out to be 11 h and the Tmax turned out to be 5 h. In addition, in data set [1] (setting [3]), the AUC0-27 hr worked out at 2410 ng·h/mL, the “AUC0-27 hr/Dose” value is 121 *kg*ng/mL/mg, the AUCTlast is 1810 ng·h/mL and the Cmax/Dose came to 13.6 kg·ng/mL/mg. For the same molecule, in data set [1] (setting [3]), the T1/2 is 2.67 h, the Tlast was 11 h and the Tmax came to 5 h. Moreover, in the data set with C57BL/6J mice (1 mg/kg IP), the “head twitch response (HTR) compared to control (vehicle)” value is given as “elicited an increase in HTR”. Besides, the “head twitch response (HTR) compared to control (vehicle)” value with C57BL/6J mice (3 mg/kg IP) is reported as “elicited an increase in HTR”. Moreover, in the data set on C57BL/6J mice (10 mg/kg IP), the “head twitch response (HTR) compared to control (vehicle)” value was “elicited an increase in HTR”. In the data set with cortical neurons, the “neurite number (#)” value is listed as “did not significantly alter”, the “neurite total length (μm)” value is “did not significantly alter” and the “total number of branch points (#)” value is listed as “did not significantly alter”. In addition, at Serotonin 5-HT1A, the “% inhibition of binding or activity” value is recorded as 50%.

In the case of `CC(N)Cc1ccc2c(c1)OCO2` (racemic) [Racemic MDA, 3,4-methylenedioxyamphetamine], the inhibition at 10 µM at Serotonin 5-HT2B (read-out: % inhibition of binding or activity) came out at 89%. Further, the “head twitch response (HTR) compared to control (vehicle)” value in the data set on C57BL/6J mice (3 mg/kg IP) is reported as “increased HTR”. For the same molecule, in the data set with cortical neurons, the “neurite number (#)” value is on record as “did not significantly alter”, the “neurite total length (μm)” value is recorded as “did not significantly alter” and the “total number of branch points (#)” value was “did not significantly alter”. Moreover, at Adrenergic α2A, the inhibition at 10 µM was determined as 53%.
